Experimental data published in patent US8883784B2, “Apoptosis-inducing agents for the treatment of cancer and immune and autoimmune diseases” (AbbVie Inc., priority 2012, dated 2014).

How the values were obtained:
GST-Bcl-xL = GST-Bcl-xL (Homo sapiens (Human), UniProt Q07817); experiment: TR-FRET binding assay, competition with F-Bak for Bcl-xL; details: competition with F-Bak probe, GST-Bcl-xL 1 nM
Description: Determination of the utility of compounds having Formula (I) as binders to and inhibitors of anti-apoptotic Bcl-xL proteins was performed using the Time Resolved-Fluorescence Resonance Energy Transfer (TR-FRET) Assay. Tb-anti-GST antibody was purchased from Invitrogen (Catalog No. PV4216).
The measurement of competition of compounds of Formula (I) with F-Bak for a Bcl-2 family protein (Bcl-xL) binding site using a Time Resolved Fluorescence Resonance Energy Transfer (TR-FRET) binding assay:
Test compounds were serially diluted in DMSO starting at 50 μM (2× starting concentration; 10% DMSO) and 10 μL transferred into a 384-well plate.
The samples are then mixed on a shaker for 1 minute then incubated for an additional 2 hours at room temperature. For each assay plate, a probe/antibody and protein/antibody/probe mixture were included as a negative and a positive control, respectively. Fluorescence was measured on the ENVISION plate reader (Perkin Elmer) using a 340/35 nm excitation filter and 520/525 (F-Bak) and 495/510 nm (Tb-labeled anti-his antibody) emission filters. Dissociation constants (Ki) were determined using Wang's equation (Wang, Z. X. An 20 exact mathematical expression for describing competitive binding of two different ligands to protein molecule. FEBS Lett. 1995 360:111-114). The TR-FRET assay can be performed in the presence of varying concentrations of human serum (HS) or fetal bovine serum (FBS).

[1] = system: mouse FL5.12 cells transfected with Bcl-XL; experiment: FL5.12 cellular assay (cell viability, CellTiter-Glo); format: cell-based; details: IL-3-depleted, 3% FBS assay media, 24 hours, read-out: FL5.12 Bcl-xL, -IL3, EC 50
Description: The efficacy of the compounds of Formula (I) can also be determined in cell-based killing assays using a variety of cell lines and mouse tumor models. For example, their activity on cell viability can be assessed on a panel of cultured tumorigenic and non-tumorigenic cell lines, as well as primary mouse or human cell populations. In one exemplary set of conditions, mouse FL5.12 cells transfected with Bcl-XL were cultured under standard conditions in RPMI with 2 mM glutamine, 1% 100 mM sodium pyruvate, 2% 1 M HEPES, 4 μL/L of β-mercaptoethanol, 1% penicillinstreptomycin, 10% FBS, and 10% WEHI-3B conditioned media (for IL-3). For assaying the compound activity, the cells were exchanged into an IL-3-depleted deprivation media, which was identical to the growth media except for the absence of FBS and WEHI-3B conditional media, for 2 days. Then the cells were exchanged to 3% FBS assay media (RPMI with 2 mM glutamine, 1% 100 mM sodium pyruvate, 2% 1 M HEPES, 4 μL/L of β-mercaptoethanol, 1% penicillinstreptomycin, 3% FBS). Compounds in series dilutions were added, and the cells were cultured for 24 hours. Cell viability was assayed using the CellTiter-Glo assay (Promega Corp., Madison, Wis.) according to the manufacturer instructions. Individual determinations were the result of duplicate values.

Chain of GST-Bcl-xL (Q07817 whole entry): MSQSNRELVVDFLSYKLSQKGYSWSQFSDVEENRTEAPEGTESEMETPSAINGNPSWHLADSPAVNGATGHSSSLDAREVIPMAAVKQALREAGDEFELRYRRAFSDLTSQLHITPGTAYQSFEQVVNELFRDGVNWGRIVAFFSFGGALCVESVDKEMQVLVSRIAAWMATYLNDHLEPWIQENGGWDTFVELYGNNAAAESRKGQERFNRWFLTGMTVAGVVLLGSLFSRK

Compound	Ki (GST-Bcl-xL) [nM]	EC50 [1] [nM]
CN(C)CC[C@H](CSc1ccccc1)Nc1ccc(S(=O)(=O)NC(=O)c2csc(N3CCc4cccc(C(=O)Nc5nc6ccccc6s5)c4C3)n2)cc1[N+](=O)[O-] [Example 1, N-(1,3-benzothiazol-2-yl)-2-(4-{[(4-{[(2R)-4-(dimethylamino)-1-(phenylsulfanyl)butan-2-yl]amino}-3-nitrophenyl)sulfonyl]carbamoyl}-1,3-thiazol-2-yl)-1,2,3,4-tetrahydroisoquinoline-8-carboxamide]	0.1	56
O=C(NS(=O)(=O)c1ccc(N[C@H](CCN2CCOCC2)CSc2ccccc2)c(S(=O)(=O)C(F)(F)F)c1)c1csc(N2CCc3cccc(C(=O)Nc4nc5ccccc5s4)c3C2)n1 [Example 2, N-(1,3-benzothiazol-2-yl)-2-(4-{[(4-{[(2R)-4-(morpholin-4-yl)-1-(phenylsulfanyl)butan-2-yl]amino}-3-[(trifluoromethyl)sulfonyl]phenyl)sulfonyl]carbamoyl}-1,3-thiazol-2-yl)-1,2,3,4-tetrahydroisoquinoline-8-carboxamide]	0.1	12
O=C(NS(=O)(=O)c1ccc(N[C@H](CCN2CCOCC2)CSc2ccccc2)c(S(=O)(=O)C(F)(F)F)c1)c1cccc(N2CCc3cccc(C(=O)Nc4nc5ccccc5s4)c3C2)n1 [Example 3, N-(1,3-benzothiazol-2-yl)-2-(6-{[(4-{[(2R)-4-(morpholin-4-yl)-1-(phenylsulfanyl)butan-2-yl]amino}-3-[(trifluoromethyl)sulfonyl]phenyl)sulfonyl]carbamoyl}pyridin-2-yl)-1,2,3,4-tetrahydroisoquinoline-8-carboxamide]	12	> 1000
CN(C)CCCNc1ccc(S(=O)(=O)NC(=O)c2nc(N3CCc4cccc(C(=O)Nc5nc6ccccc6s5)c4C3)ccc2CCCc2ccccc2)cc1[N+](=O)[O-] [Example 4, N-(1,3-benzothiazol-2-yl)-2-[6-{[(4-{[3-(dimethylamino)propyl]amino}-3-nitrophenyl)sulfonyl]carbamoyl}-5-(3-phenylpropyl)pyridin-2-yl]-1,2,3,4-tetrahydroisoquinoline-8-carboxamide]	9	> 1000
CN(C)CCCNc1ccc(S(=O)(=O)NC(=O)c2nc(N3CCc4cccc(C(=O)Nc5nc6ccccc6s5)c4C3)ccc2CCCc2ccccc2)cc1S(=O)(=O)C(F)(F)F [Example 5, N-(1,3-benzothiazol-2-yl)-2-[6-{[(4-{[3-(dimethylamino)propyl]amino}-3-[(trifluoromethyl)sulfonyl]phenyl)sulfonyl]carbamoyl}-5-(3-phenylpropyl)pyridin-2-yl]-1,2,3,4-tetrahydroisoquinoline-8-carboxamide]	48	> 1000
CN(C)CCCNc1ccc(S(=O)(=O)NC(=O)c2nc(N3CCc4cccc(C(=O)Nc5nc6ccccc6s5)c4C3)ccc2CCc2ccccc2)cc1[N+](=O)[O-] [Example 6, N-(1,3-benzothiazol-2-yl)-2-[6-{[(4-{[3-(dimethylamino)propyl]amino}-3-nitrophenyl)sulfonyl]carbamoyl}-5-(2-phenylethyl)pyridin-2-yl]-1,2,3,4-tetrahydroisoquinoline-8-carboxamide]	17	> 1000
CN(C)CCCNc1ccc(S(=O)(=O)NC(=O)c2csc(N3CCc4cccc(C(=O)Nc5nc6ccccc6s5)c4C3)n2)cc1S(=O)(=O)C(F)(F)F [Example 7, N-(1,3-benzothiazol-2-yl)-2-(4-{[(4-{[3-(dimethylamino)propyl]amino}-3-[(trifluoromethyl)sulfonyl]phenyl)sulfonyl]carbamoyl}-1,3-thiazol-2-yl)-1,2,3,4-tetrahydroisoquinoline-8-carboxamide]	1.7	> 1000
CN(C)CCCNc1ccc(S(=O)(=O)NC(=O)c2nc(N3CCc4cccc(C(=O)Nc5nc6ccccc6s5)c4C3)sc2Cc2ccccc2)cc1S(=O)(=O)C(F)(F)F [Example 8, N-(1,3-benzothiazol-2-yl)-2-(5-benzyl-4-{[(4-{[3-(dimethylamino)propyl]amino}-3-[(trifluoromethyl)sulfonyl]phenyl)sulfonyl]carbamoyl}-1,3-thiazol-2-yl)-1,2,3,4-tetrahydroisoquinoline-8-carboxamide]	11	> 1000
CN(C)CCCNc1ccc(S(=O)(=O)NC(=O)c2nc(N3CCc4cccc(C(=O)Nc5nc6ccccc6s5)c4C3)sc2Cc2ccccc2)cc1[N+](=O)[O-] [Example 9, N-(1,3-benzothiazol-2-yl)-2-(5-benzyl-4-{[(4-{[3-(dimethylamino)propyl]amino}-3-nitrophenyl)sulfonyl]carbamoyl}-1,3-thiazol-2-yl)-1,2,3,4-tetrahydroisoquinoline-8-carboxamide]	41	> 1000
O=C(NS(=O)(=O)c1ccc(N[C@H](CCN2CCOCC2)CSc2ccccc2)c([N+](=O)[O-])c1)c1csc(N2CCc3cccc(C(=O)Nc4nc5ccccc5s4)c3C2)n1 [Example 10, N-(1,3-benzothiazol-2-yl)-2-(4-{[(4-{[(2R)-4-(morpholin-4-yl)-1-(phenylsulfanyl)butan-2-yl]amino}-3-nitrophenyl)sulfonyl]carbamoyl}-1,3-thiazol-2-yl)-1,2,3,4-tetrahydroisoquinoline-8-carboxamide]	0.14	
CN(C)CCCNc1ccc(S(=O)(=O)NC(=O)c2nc(N3CCc4cccc(C(=O)Nc5nc6ccccc6s5)c4C3)sc2CCc2ccccc2)cc1S(=O)(=O)C(F)(F)F [Example 11, N-(1,3-benzothiazol-2-yl)-2-[4-{[(4-{[3-(dimethylamino)propyl]amino}-3-[(trifluoromethyl)sulfonyl]phenyl)sulfonyl]carbamoyl}-5-(2-phenylethyl)-1,3-thiazol-2-yl]-1,2,3,4-tetrahydroisoquinoline-8-carboxamide]	0.06	22
CN(C)CC[C@H](CSc1ccccc1)Nc1ccc(S(=O)(=O)NC(=O)c2csc(N3CCc4cccc(C(=O)Nc5nc6ccccc6s5)c4C3)n2)cc1S(=O)(=O)C(F)(F)F [Example 12, N-(1,3-benzothiazol-2-yl)-2-(4-{[(4-{[(2R)-4-(dimethylamino)-1-(phenylsulfanyl)butan-2-yl]amino}-3-[(trifluoromethyl)sulfonyl]phenyl)sulfonyl]carbamoyl}-1,3-thiazol-2-yl)-1,2,3,4-tetrahydroisoquinoline-8-carboxamide]	0.04	3
CN(C)CCCNc1ccc(S(=O)(=O)NC(=O)c2nc(N3CCc4cccc(C(=O)Nc5nc6ccccc6s5)c4C3)sc2CCc2ccccc2)cc1[N+](=O)[O-] [Example 13, N-(1,3-benzothiazol-2-yl)-2-[4-{[(4-{[3-(dimethylamino)propyl]amino}-3-nitrophenyl)sulfonyl]carbamoyl}-5-(2-phenylethyl)-1,3-thiazol-2-yl]-1,2,3,4-tetrahydroisoquinoline-8-carboxamide]	0.8	94
O=C(NS(=O)(=O)c1ccc(N[C@H](CCO)CSc2ccccc2)c(S(=O)(=O)C(F)(F)F)c1)c1csc(N2CCc3cccc(C(=O)Nc4nc5ccccc5s4)c3C2)n1 [Example 14, N-(1,3-benzothiazol-2-yl)-2-(4-{[(4-{[(2R)-4-hydroxy-1-(phenylsulfanyl)butan-2-yl]amino}-3-[(trifluoromethyl)sulfonyl]phenyl)sulfonyl]carbamoyl}-1,3-thiazol-2-yl)-1,2,3,4-tetrahydroisoquinoline-8-carboxamide]	0.2	
CN(C)CCCNc1ccc(S(=O)(=O)NC(=O)c2nc(N3CCc4cccc(C(=O)Nc5nc6ccccc6s5)c4C3)sc2CCCc2ccccc2)cc1[N+](=O)[O-] [Example 15, N-(1,3-benzothiazol-2-yl)-2-[4-{[(4-{[3-(dimethylamino)propyl]amino}-3-nitrophenyl)sulfonyl]carbamoyl}-5-(3-phenylpropyl)-1,3-thiazol-2-yl]-1,2,3,4-tetrahydroisoquinoline-8-carboxamide]	5	
